This is an account of results in US11739051B2 (ALEXION PHARMA INTERNATIONAL OPERATIONS UNLIMITED COMPANY, priority 2018, dated 2023).

A value given as a limit tells only on which side of the number the result lay.

Data set [1] is described as follows: Particle size distribution (PSD) by LALLS. The data set is classed as physicochemical. To be noted: for Dx (10)/μm: 10th percentile of particle size, paraffin oil dispersion; for Dx (50)/μm: 50th percentile of particle size; for Dx (90)/μm: 90th percentile of particle size; for >100 μm (%): percentage of particles greater than 100 μm; for <2 μm (%): percentage of particles less than 2 μm. The text has this:
As used herein, the term “Dx(10)/μm” refers to the 10th percentile of particle size (D10) measured in micrometers (μm). As used herein, the terms “Dx(50)/μm” or “median particle size” refer to the 50th percentile particle size (D50). As used herein, the term “Dx(90)/μm” refers to the 90th percentile of particle size (D90).
As used herein, the term “<2 μm (%)” refers to the percentage (%) of particles that are less than 2 μm. As used herein, the term “>100 μm (%)” refers to the percentage (%) of particles that are greater than 100 μm. As used herein, the percentage of particles refers to the percentage based on the population, or number, of particles.
The sample dispersion medium was paraffin oil. […] This was repeated until a stable reading was obtained.
The PSD measurements were done using the following settings: background measurement time, 20 seconds(s); sample measurement time, 20 s; dispersant refractive index, 1.45; particle refractive index, N/A (Fraunhofer), absorption, N/A (Fraunhofer); stirrer speed, 2500 rpm; analysis model: general purpose.

A short description of data set [2]: Specific surface area (SSA) by BET. The format is physicochemical. Conditions: N2 adsorption. The procedure: As used herein, the ten “SSA (m^2/g)” refers to specific surface area (SSA) measured in square meters (m^2) per gram (g). SSA was measured by BET according to the method described in Example 4.
Specific Surface Area (SSA) was analyzed by BET on a surface area analyzer (Gemini 2375™ from Micromeritics Instrument Corp.). […] Each sample was filled into a glass tube and “degassed” at 30° C. for 1 h under continuous N2 (g) flow in order to remove all loosely bound molecules on the external surface and from potential channels in the material. Simultaneously, the saturation pressure for the liquid nitrogen used was determined. After weighing the degassed samples, the degassed samples were inserted into the measuring position at −196° C. (boiling point for liquid nitrogen), evacuated and then exposed to a range of partial pressures basically covering the whole range from almost zero to close to 1 under adsorption mode. The lower pressures were used for SSA determination. Higher pressures were used for potential micro pore determination. In order to ascribe the right amount of nitrogen to the substances, the free volume in the tubes was measured with helium gas prior to nitrogen adsorption. The appropriate thickness values for the adsorbed layer (above the point where no absorption took place in micro pores anymore) was determined from a t-plot and subsequently used to correct the calculation by separating the adsorbed nitrogen molecules into either absorbed into potential pore like structures (the “micro pore volume”) or adsorbed onto actual external surface.

For data set [3] the following is noted: 5 g lab-scale Process C crystallization; for D10 (μm) / D50 (μm) / D90 (μm): ethanol charge time and temperature vary per example; for >100 (%): particles greater than 100 μm; for <2 (%): particles less than 2 μm; for D90/D50: ratio of D90 to D50. The procedure:
Particle size distribution (PSD) was analyzed by LALLS on a commercial laser particle size analyzer (Malvern Instruments Ltd. Mastersizer 3000™) instrument, equipped with a 300 mm reverse Fourier lens with a small volume automated liquid sample dispersion unit (Malvern, Hydro MV™). The sample dispersion medium was paraffin oil. Samples taken from each of the batches were analyzed sequentially. Each sample was introduced directly into the small volume sample dispersion unit to study the disaggregation under influence of stirring only. Thereafter sonication was applied at low power (20%) in 60 seconds. This was repeated until a stable reading was obtained.
(§1) Each mixture was then transferred to a 250 mL lab reactor via a series of 0.45 and 0.22 μm HPLC filters for polish filtration, and 2×1 mL water was used for rinsing (total amount water added: 19 mL, which gives an ethanol amount of 76 mL for an ethanol/water end-ratio of 80/20). After heating of the mixture to correct jacket temperature (35° C., 45° C., 50° C. or 55° C.), ethanol (76 mL) was charged for 1, 2.5 or 4 hours. A syringe pump connected to a 50-mL plastic syringe was used for the charging. Linear cooling profiles were then applied and all examples were cooled at a rate of 0.333° C./min down to 15° C. All mixtures were stirred for an additional 10 minutes at 15° C. before isolation of the solid on a P3 glass filter funnel. In example 8, the same conditions as described above were used, but the speed of the stirrer of the lab reactor was doubled. In example 10, the same conditions as described above were used, but a type different stirrer was used that increased the mass transfer in the lab reactor.

The conditions of data set [4]: isolated solid after 5 g lab-scale Process C crystallization. The procedure: Purity was analyzed by reverse-phase high-performance liquid chromatography (HLPC) using Agilent® 1100 series HPLC system and a reversed-phase column (Aquasil C18, 4.6×250 mm, 5 μm) at 25°, with the absorbance detector set to 242 or 301 nm. […] The amount of BC-TTM and impurities in the sample solution was determined by the regression line and the area of the standard peaks in the sample chromatogram.
as §1

On to “bis-choline tetrathiomolybdate [Batch A-1]”, for which, in data set [1] (listed as A-1), the “Dx (10)/μm” value was determined as 10.3 μm, the “Dx (50)/μm” value came to 59.4 μm, the “Dx (90)/μm” value stood at 503 μm and the “>100 μm (%)” value was determined as 42.1%. Also, in data set [1] (listed as A-1), the “<2 μm (%)” value came out at 2%. The “SSA (m^2/g)” value in data set [2] (listed as A-1) stood at 0.52 m^2/g.
Consider “bis-choline tetrathiomolybdate [Batch C-3]”, for which, in data set [1] (listed as C-3), the “Dx (10)/μm” value came out at 25.7 μm, the “Dx (50)/μm” value is listed as 52.9 μm, the “Dx (90)/μm” value turned out to be 97.7 μm and the “>100 μm (%)” value is 9.2%. In addition, the “<2 μm (%)” value in data set [1] (listed as C-3) turned out to be 1.0%. For the same substance, in data set [2] (listed as C-3), the “SSA (m^2/g)” value is recorded as 0.12 m^2/g.
Take “bis-choline tetrathiomolybdate [compound 1]”: in data set [3], the “D10 (μm)” value was 21 μm, the “D50 (μm)” value is recorded as 45 μm, the “D90 (μm)” value was found to be 77 μm and the “>100 (%)” value was 1.4%. In data set [3], the “<2 (%)” value was 1.3% and the D90/D50 stood at 1.7. Further, in data set [4], the “TM2 (% w/w)” value is below 0.05 % w/w, the “TM3 (% w/w)” value was found to be 0.18 % w/w and the “Total impurities (% w/w)” value came to 0.18 % w/w.
On to “bis-choline tetrathiomolybdate [compound 2]”, for which, in data set [3], the “D10 (μm)” value turned out to be 25 μm, the “D50 (μm)” value is listed as 46 μm, the “D90 (μm)” value was determined as 79 μm and the “>100 (%)” value stood at 1.9%. In addition, in data set [3], the “<2 (%)” value was 1.4% and the D90/D50 was 1.7. For the same substance, in data set [4], the “TM2 (% w/w)” value is 0.13 % w/w, the “TM3 (% w/w)” value was 0.45 % w/w and the “Total impurities (% w/w)” value is 0.57 % w/w.
Take “bis-choline tetrathiomolybdate [compound 3]”: in data set [3], the “D10 (μm)” value is recorded as 37 μm, the “D50 (μm)” value came out at 79 μm, the “D90 (μm)” value turned out to be 135 μm and the “>100 (%)” value is recorded as 30%. In addition, in data set [3], the “<2 (%)” value turned out to be 0.4% and the D90/D50 was found to be 1.7. In addition, in data set [4], the “TM2 (% w/w)” value is on record as below 0.05 % w/w, the “TM3 (% w/w)” value is given as 0.14 % w/w and the “Total impurities (% w/w)” value is on record as 0.14 % w/w.
As to “bis-choline tetrathiomolybdate [compound 4]”, in data set [3], the “D10 (μm)” value is 33 μm, the “D50 (μm)” value turned out to be 56 μm, the “D90 (μm)” value came out at 92 μm and the “>100 (%)” value is given as 5.8%. For the same substance, in data set [3], the “<2 (%)” value stood at 0.8% and the D90/D50 is recorded as 1.6. For the same substance, in data set [4], the “TM2 (% w/w)” value is given as 0.19 % w/w, the “TM3 (% w/w)” value was 0.46 % w/w and the “Total impurities (% w/w)” value was 0.70 % w/w.
Take “bis-choline tetrathiomolybdate [compound 5]”: in data set [3], the “D10 (μm)” value amounted to 38 μm, the “D50 (μm)” value amounted to 80 μm, the “D90 (μm)” value worked out at 136 μm and the “>100 (%)” value is given as 31%. Besides, in data set [3], the “<2 (%)” value was 0.0% and the D90/D50 came to 1.7. For the same substance, in data set [4], the “TM2 (% w/w)” value is below 0.05 % w/w, the “TM3 (% w/w)” value was 0.18 % w/w and the “Total impurities (% w/w)” value was determined as 0.18 % w/w.
As to “bis-choline tetrathiomolybdate [compound 6]”, in data set [3], the “D10 (μm)” value came out at 42 μm, the “D50 (μm)” value was 87 μm, the “D90 (μm)” value is given as 148 μm and the “>100 (%)” value is on record as 38%. In data set [3], the “<2 (%)” value is reported as 0.0% and the D90/D50 turned out to be 1.7. In data set [4], the “TM2 (% w/w)” value is below 0.05 % w/w, the “TM3 (% w/w)” value stood at 0.19 % w/w and the “Total impurities (% w/w)” value is 0.19 % w/w.
Take “bis-choline tetrathiomolybdate [compound 7]”: in data set [3], the “D10 (μm)” value is 41 μm, the “D50 (μm)” value is listed as 85 μm, the “D90 (μm)” value was 143 μm and the “>100 (%)” value was 36%. Moreover, in data set [3], the “<2 (%)” value was 0.0% and the D90/D50 came out at 1.7. For the same substance, in data set [4], the “TM2 (% w/w)” value is given as below 0.05 % w/w, the “TM3 (% w/w)” value came out at 0.18 % w/w and the “Total impurities (% w/w)” value is 0.18 % w/w.
With “bis-choline tetrathiomolybdate [compound 8]”, in data set [3], the “D10 (μm)” value is reported as 57 μm, the “D50 (μm)” value is listed as 102 μm, the “D90 (μm)” value amounted to 164 μm and the “>100 (%)” value worked out at 52%. Besides, in data set [3], the “<2 (%)” value amounted to 0.0% and the D90/D50 amounted to 1.6. Also, in data set [4], the “TM2 (% w/w)” value is below 0.05 % w/w, the “TM3 (% w/w)” value came to 0.18 % w/w and the “Total impurities (% w/w)” value stood at 0.18 % w/w.
As for “bis-choline tetrathiomolybdate [compound 9]”, in data set [3], the “D10 (μm)” value was 33 μm, the “D50 (μm)” value was found to be 61 μm, the “D90 (μm)” value is 101 μm and the “>100 (%)” value was determined as 11%. Besides, in data set [3], the “<2 (%)” value is 1.0% and the D90/D50 is 1.7. In data set [4], the “TM2 (% w/w)” value stood at 0.12 % w/w, the “TM3 (% w/w)” value came to 0.25 % w/w and the “Total impurities (% w/w)” value was determined as 0.37 % w/w.
With “bis-choline tetrathiomolybdate [compound 10]”, in data set [3], the “D10 (μm)” value was found to be 50 μm, the “D50 (μm)” value turned out to be 95 μm, the “D90 (μm)” value came to 161 μm and the “>100 (%)” value is on record as 45%. In data set [3], the “<2 (%)” value turned out to be 0.0% and the D90/D50 was 1.7. Further, in data set [4], the “TM2 (% w/w)” value is listed as below 0.05% w/w, the “TM3 (% w/w)” value was 0.16 % w/w and the “Total impurities (% w/w)” value came to 0.16 % w/w.
